Experimental data: ChEMBL document CHEMBL3112506, “Synthesis and structure-activity relationship studies of 4-((2-hydroxy-3-methoxybenzyl)amino)benzenesulfonamide derivatives as potent and selective inhibitors of 12-lipoxygenase” (J Med Chem, 2014)
Active and inactive are the calls of the source. The calls are words filed in the database; no cut-off is given here.

Key:
Rattus norvegicus = organism: Rattus norvegicus; assay: Metabolic stability in rat assessed as glucuronidation; format: ADME, organism-based; details: in vitro
[1] = biological target: T1, Polyunsaturated fatty acid lipoxygenase ALOX15 (Homo sapiens, UniProt P16050)
T1 sequence (P16050 whole entry): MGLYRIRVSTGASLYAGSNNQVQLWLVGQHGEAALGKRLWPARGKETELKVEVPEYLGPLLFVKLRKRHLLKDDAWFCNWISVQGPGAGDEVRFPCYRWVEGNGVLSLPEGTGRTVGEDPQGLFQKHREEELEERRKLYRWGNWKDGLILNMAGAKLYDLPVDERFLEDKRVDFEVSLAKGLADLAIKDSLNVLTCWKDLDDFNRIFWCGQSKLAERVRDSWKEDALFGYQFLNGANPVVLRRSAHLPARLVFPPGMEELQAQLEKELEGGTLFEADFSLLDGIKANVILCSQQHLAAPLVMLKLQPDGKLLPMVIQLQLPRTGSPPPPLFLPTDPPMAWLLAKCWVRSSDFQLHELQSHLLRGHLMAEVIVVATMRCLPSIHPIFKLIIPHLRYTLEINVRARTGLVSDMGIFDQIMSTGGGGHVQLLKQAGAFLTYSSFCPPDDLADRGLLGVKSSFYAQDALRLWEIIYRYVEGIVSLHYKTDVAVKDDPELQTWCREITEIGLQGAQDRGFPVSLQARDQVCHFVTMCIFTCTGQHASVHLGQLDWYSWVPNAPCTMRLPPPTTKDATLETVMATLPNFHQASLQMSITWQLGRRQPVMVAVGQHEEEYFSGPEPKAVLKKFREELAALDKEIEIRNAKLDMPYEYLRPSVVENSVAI

[2] = biological target: T2, Polyunsaturated fatty acid lipoxygenase ALOX12 (Homo sapiens, UniProt P18054)
T2 sequence (P18054 whole entry): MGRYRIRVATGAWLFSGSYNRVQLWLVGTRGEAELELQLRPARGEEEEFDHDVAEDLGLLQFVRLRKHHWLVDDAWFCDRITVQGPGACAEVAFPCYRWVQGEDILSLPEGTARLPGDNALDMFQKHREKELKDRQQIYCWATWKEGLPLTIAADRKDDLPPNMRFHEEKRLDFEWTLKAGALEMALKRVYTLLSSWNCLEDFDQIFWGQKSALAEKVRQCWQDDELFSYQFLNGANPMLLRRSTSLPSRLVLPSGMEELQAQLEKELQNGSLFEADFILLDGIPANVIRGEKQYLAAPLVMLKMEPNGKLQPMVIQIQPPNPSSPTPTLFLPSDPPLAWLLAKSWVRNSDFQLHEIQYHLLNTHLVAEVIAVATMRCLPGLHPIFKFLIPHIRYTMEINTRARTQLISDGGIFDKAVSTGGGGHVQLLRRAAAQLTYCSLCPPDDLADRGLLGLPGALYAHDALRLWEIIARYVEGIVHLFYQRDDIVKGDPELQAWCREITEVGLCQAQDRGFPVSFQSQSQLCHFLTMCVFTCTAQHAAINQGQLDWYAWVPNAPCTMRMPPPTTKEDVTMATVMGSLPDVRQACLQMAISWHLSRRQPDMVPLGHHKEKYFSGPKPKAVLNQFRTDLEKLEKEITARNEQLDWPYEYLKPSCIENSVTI

[3] = biological target: Cyclooxygenase (Homo sapiens) (UniProt P35354+P23219); assay: Inhibition of COX1/COX2 (unknown origin) using arachidonic acid as substrate assessed as consumption of oxygen preincubated for 5 mins followed by substrate addition at 15 uM; format: protein assay
[4] = Stability of the compound in PBS buffer at pH 7.4 measured at 48 hrs; format: physicochemical; details: read-out: Stability
[5] = biological target: T3, Polyunsaturated fatty acid lipoxygenase ALOX12 (Mus musculus) (UniProt P39655); assay: Inhibition of 12-LOX in mouse BTC3 cells assessed as inhibition of arachidonic acid/calcium ionophore-induced 12-HETE production after 4 hrs by ELISA; format: cell-based
T3 sequence (whole entry): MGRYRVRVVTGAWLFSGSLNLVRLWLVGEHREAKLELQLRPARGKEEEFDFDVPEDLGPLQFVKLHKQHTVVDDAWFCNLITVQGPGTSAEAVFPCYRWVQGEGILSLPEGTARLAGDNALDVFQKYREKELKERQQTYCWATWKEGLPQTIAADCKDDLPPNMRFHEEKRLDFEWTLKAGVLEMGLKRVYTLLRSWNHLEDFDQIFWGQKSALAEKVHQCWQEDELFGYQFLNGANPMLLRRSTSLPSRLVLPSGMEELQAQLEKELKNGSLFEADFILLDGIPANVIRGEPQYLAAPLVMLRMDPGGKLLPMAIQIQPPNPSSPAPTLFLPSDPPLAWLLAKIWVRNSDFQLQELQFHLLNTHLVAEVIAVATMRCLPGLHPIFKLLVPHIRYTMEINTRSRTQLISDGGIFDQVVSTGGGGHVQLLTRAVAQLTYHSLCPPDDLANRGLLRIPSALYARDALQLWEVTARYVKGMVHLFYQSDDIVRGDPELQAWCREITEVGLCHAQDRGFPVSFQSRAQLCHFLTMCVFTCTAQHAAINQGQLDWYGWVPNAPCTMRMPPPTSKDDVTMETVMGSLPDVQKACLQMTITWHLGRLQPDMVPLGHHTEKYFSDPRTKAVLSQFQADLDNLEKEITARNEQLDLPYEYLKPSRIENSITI

[6] = Metabolic stability in mouse liver microsomes measured over 1 hr in absence of NADPH; format: ADME, Microsome
[7] = Aqueous solubility of the compound in PBS buffer at pH 7.4 by chemiluminescent nitrogen detection method; format: physicochemical
Liver microsome = assay: Metabolic stability in rat liver microsomes measured over 1 hr in absence of NADPH; format: ADME
[8] = Metabolic stability in mouse plasma assessed as compound remaining measured at 2 hrs; format: ADME, cell-free; details: read-out: Stability
[9] = Stability of the compound in presence of glutathione; format: ADME
Mus musculus [10] = assay: Volume of distribution in CD-1 mouse at 3 mg/kg, iv; format: ADME, organism-based; design: dose 3 mg/kg, route intravenous; details: in vivo
Mus musculus [11] = assay: Cmax in CD-1 mouse at 3 mg/kg, iv; format: ADME, organism-based; design: dose 3 mg/kg, route intravenous; details: in vivo
[12] = Stability of the compound in HEPES buffer at pH 7.3; format: physicochemical
Mus musculus [13] = assay: AUC (infinity) in CD-1 mouse at 30 mg/kg, po; format: ADME, organism-based, Plasma; design: time infinity, dose 30 mg/kg, route oral; details: in vivo
Mus musculus [14] = assay: Cmax in CD-1 mouse at 30 mg/kg, po; format: ADME, organism-based; design: dose 30 mg/kg, route oral; details: in vivo
[15] = Stability of the compound in aqueous buffer at pH 2 to 9; format: physicochemical
[16] = Aqueous solubility of the compound in PBS buffer at pH 7.4 by LC-UV spectroscopic analysis; format: physicochemical
Mus musculus [17] = assay: AUC (infinity) in CD-1 mouse at 3 mg/kg, iv; format: ADME, organism-based, Plasma; design: dose 3 mg/kg, route intravenous, time infinity; details: in vivo

O=S(=O)(Nc1nc2ccccc2s1)c1ccc(NCc2cccc(Cl)c2O)cc1
Stability (Rattus norvegicus): Unstable | IC50 [1]: 1.3 µM

O=S(=O)(Nc1nccs1)c1ccc(NCc2ccccc2O)cc1
IC50 [2]: > 40 µM

COc1cccc(CNc2ccc(S(=O)(=O)Nc3nc4ccccc4[nH]3)cc2)c1O
inhibition [3]: inactive

O=S(=O)(Nc1nccs1)c1ccc(NCc2ccccc2)cc1
IC50 [2]: > 40 µM

COc1cccc(CNc2ccc(S(=O)(=O)Nc3nc4ccccc4o3)cc2)c1O
remaining at 48 h [4]: 100% | inhibition [5]: Active | inhibition [3]: inactive | Stability [6]: Stable | solubility [7]: soluble | Stability (Liver microsome): Stable | remaining at 2 h [8]: 100%

Nc1ccccc1CNc1ccc(S(=O)(=O)Nc2nccs2)cc1
IC50 [2]: > 40 µM

COc1cccc(CNc2ccc(S(=O)(=O)Nc3nc4ccccc4s3)cc2)c1O [VLX-1005]
Stability [9]: Stable | Vd (Mus musculus [10]): 0.55 L/kg | inhibition [3]: inactive | Cmax (Mus musculus [11]): 112 µM | Stability [12]: Stable | Stability [6]: Stable | solubility [7]: soluble | AUC (Mus musculus [13]): 67 µM·h | Cmax (Mus musculus [14]): 38 µM | Stability (Liver microsome): Stable | Stability [15]: Stable | solubility [16]: < 5 µg/mL | AUC (Mus musculus [17]): 34 µM·h

O=S(=O)(Nc1nccs1)c1ccc(NCc2cccc(O)c2)cc1
IC50 [2]: > 40 µM
